Measured values published in US6130333A, “Bicyclic imidazolyl derivatives as phosphodiesterase inhibitors, pharmaceutical compositions and method of use” (Monsanto Company, priority 1998, dated 2000).
pIC50: −log10 of the molar value.

Columns and labels:
[1] = target: T1, cGMP-specific PDE from bovine aorta (Bos taurus, UniProt Q28156); assay: Assay for inhibition of cGMP PDE; format: biochemical; conditions: bovine aorta enzyme; 30 minute incubation at room temperature, pH 7.5; averaged where multiple testing
T1 construct: chromatography of a bovine aorta extract on a DEAE Tris-acryl column; from tissue; host or cells: bovine aorta
Protocol: (§1) Phosphodiesterase enzymes were partially purified according to the procedures reported by Francis, S. H., and Corbin, J. D. (1988) in Methods in Enzymology, Vol. 159, pp. 722-729, Academic Press, New York and Bradford, M. M. in (1976) Anal. Biochem. 72, 248-254. Specifically, the purification was accomplished by chromatography of a bovine aorta extract on a DEAE Tris-acryl column. The eluted fractions were assayed for the various specific activities. The specific enzyme activities were pooled and concentrated. […] The cGMP-specific phosphodiesterase was assayed in the presence of 1 μM cGMP. The calcium/calmodulin dependent enzyme activity was assayed in the presence of 1 μM cGMP, 0.5 units calmodulin (Sigma P-0270, phosphodiesterase 3',5'-cyclic nucleotide activator from bovine heart) per ml of reaction, and 100 μM Ca^2+.
The partially purified cGMP-specific PDE from bovine aorta was stored as a concentrated solution in glycerol at 4° C. Prior to use it was diluted approximately 1:3000 with an assay buffer containing 100 mM Tris-HCl and 5 mM MgSO4 at pH 7.5 to give approximately 10% conversion of cGMP substrate to GMP in a 30 minute reaction time.
(§2) Enzyme assays were performed in Millipore 96-well polystyrene microtiter plates in a total assay volume of 100 μL of buffer containing 100 mM Tris-HCl and 5 mM MgSO4 at pH 7.5. cGMP PDE inhibitor compounds were dissolved in DMSO at a concentration of 10 mM and then diluted into the assay to give a final concentration of DMSO in the assay of 1% which has no effect on the enzymatic reaction. The reaction mixture consisted of 10 μL diluted inhibitor, 10 μL of a solution of the appropriate phosphodiesterase enzyme preparation, and 60 μL buffer. The reaction was initiated by the addition 20 μL of 5μM [3H]cGMP (100,000 DPM/well). The tritiated cGMP nucleotides were obtained from DuPont/New England Nuclear Lifesciences Company, Boston, Mass. as an ammonium salt (NET-554 guanosine 3',5'-cyclic phosphate, [8,5'-^3 H]).
(§3) After a 30 minute incubation at room temperature the reaction was stopped by the addition of 50 μL of 210 mM ZnSO4 followed by an addition of 50 μL of freshly prepared 19 mM Ba(OH)2 to specifically precipitate the radiolabled 5'-nucleotide product. The Zn--Ba precipitate was filtered onto glass-fiber filters mats (Wallac, Filtermat A, 102×258 mm) using an automated 96-well harvester (TOMTEC Harvester 96®, MACH II). The precipitate was washed from the microtiterplate to the filtermat with a total volume of 1 ml/well of a wash buffer containing 1 mM NaOH and 100 mM NaCl. The filtermat were dried in a microwave oven and placed in a Wallac sample bag for use with the 1205 BetaPlate™. 10 ml of Beta Plate Scint (LKB) was added to the bag and allowed to diffuse throughout the filter. The radiolabel was then quantitated using a LKB/Wallac 1205 BetaPlate™ scintillation counter. Inhibitor dilution curves were created using six concentrations of the inhibitor in duplicate. IC50 values were determined from a linear regression of a Log Logit transformation of the data. M&B 22,948 (2-o-propoxyphenyl-8-azapurin-6-one) was used as the standard control inhibitor for cGMP PDE and was prepared according to U.S. Pat. No. 3,819,631.

[2] = tested on: ca/calmodulin dependent cGMP PDE from bovine aorta; assay: Assay for inhibition of calcium/calmodulin dependent cGMP phosphodiesterase enzyme (Ca PDE); format: biochemical; conditions: CaCl2 and calmodulin, averaged where multiple testing, read-out: Ca GMP PDE IC50
Protocol: as §1, §2, §3
The procedure for the calcium/calmodulin dependent cGMP PDE assay was identical to the cGMP-specific phosphodiesterase assay described above, except for the following changes noted below. Partially purified ca/calmodulin dependent cGMP PDE enzyme from bovine aorta was collected as a pool based upon its elution relative to cAMP-dependent PDE and conformational changes introduced by the addition of 1 mM EDTA for 1 hour at 4° C. It was then diluted 1:1800 in assay buffer containing 143 μM CaCl2 and 0.7 units of calmodulin/ml and 70 μl of this enzyme solution was used per assay well. The standard control used was Vinpocetine purchased from Gedeon Richter LTD, Budapest, Hungary.

[3] = tested on: cAMP PDE from bovine aorta; assay: Assay for inhibition of cAMP PDE; format: biochemical; conditions: bovine aorta enzyme; [3H]cAMP substrate; averaged where multiple testing
Protocol: as §1, §2, §3
The procedure for the inhibition of cAMP PDE was identical to the procedure for the cGMP-specific phosphodiesterase assay above, except that partially purified cAMP PDE from bovine aorta was collected as pooled from the DEAE tris-acryl column based upon its elution relative to cGMP-specific PDE as well as its specificity for cAMP by hydrolysis and then used. The partially purified cAMP PDE was stored as a concentrated solution at 4° C. This enzyme was diluted 1:30 with an assay buffer prior to use. A substrate solution of [^3 H]cAMP was added to 5 μM adenosine 3', 5'-cyclic monophosphate sodium salt in assay buffer to give a solution with a specific activity of 1000 CPM/pmole (100,000 CPM/20 μl). The reaction was initiated by the addition 20 μL of 5 μM [3H]cAMP (100,000 DPM/well). The tritiated cAMP nucleotides were obtained from DuPont/New England Nuclear Lifesciences Company, Boston, Mass. as an ammonium salt (NET-275 adenosine 3',5'-cyclic phosphate, (2,8-^3 H]). Ro 20-1724 was used as the standard control (obtained from Hoffmann LaRoche, Nutley, N.J.).

[4] = In vivo blood pressure measurement in rats (femoral artery catheter); set-up: species or system male Sprague Dawley rats; conditions: intraperitoneal injection
Text: The FIGURE is a plot of mean blood pressure (mmHg) versus time (min) for anesthetized male Sprague Dawley rats (Charles River Laboratories, Wilmington, Mass.) following administration of a cyclic GMP phosphodiesterase inhibitor of this in vention by intraperitoneal injection.
Polyethylene catheters (PE50) were inserted into the femoral artery and vein of anesthetized male Sprague Dawley rats (Charles River Laboratories,Wilmington, Mass.) in order to monitor the mean arterial pressure and administer test compounds. Following surgery, the animals were place in individual restraining cages and allowed to regain consciousness. Infusion of 0.9% sodium chloride via the femoral vein (0.07 ml/kg/min) was begun and continued throughout the study period. Observations were begun approximately 90 minutes after the initiation of infusion to allow the animals to fully regain consciousness. Blood pressure was continuously monitored via the femoral artery with a pressure transducer (type 041-500-503; Cobe, Lakewood, Colo.) connected to a Grass Model 7E polygraph. Mean arterial pressure and heart rates were recorded at 3 minute intervals by a computerized data acquisition system. Cyclic GMP phosphodiesterase inhibitor (Example 41) was administered as an intraperitoneal injection, alternatively the inhibitor could have been administered directly into the catheter as an intravenous bolus.

[5] = rats; McMahon et al. 1989; cited from earlier work

pIC50 [1] | pIC50 [2] | pIC50 [3] | Structure (SMILES) | reduction in blood pressure [4] | mean arterial pressure [5] | urinary cGMP (and not cAMP) levels [5]
7.96 | 4.12 | 4.91 | c1ccc(Cn2c(-c3ccc4c(c3)OCO4)nc3ccccc32)cc1 [Example 25, 2-(1,3-Benzodioxol-5-yl)-1-phenylmethyl-1H-benzimidazole] |  |  | 
7.62 | 4.22 | 5.28 | c1ccc2cc(Cn3c(-c4ccc5c(c4)OCO5)nc4ccccc43)ccc2c1 [Example 29, 2-(1,3-Benzodioxol-5-yl)-1-(2-naphthalenylmethyl)-1H-benzimidazole] |  |  | 
8.40 | < 4.00 | < 4.00 | Fc1ccccc1Cn1c(-c2ccc3c(c2)OCO3)nc2ccccc21 [Example 30, 2-(1,3-Benzodioxol-5-yl)-1-(2-fluorophenylmethyl)-1H-benzimidazole] |  |  | 
8.52 | 4.19 | 4.92 | c1ccc2c(c1)nc(-c1ccc3c(c1)OCO3)n2Cc1ccc2c(c1)OCO2 [Example 41, 2-(1,3-Benzodioxol-5-yl)-1-[(1,3-benzodioxol-5-yl)methyl]-1H-benzimidazole] | A reduction in blood pressure was observed |  | 
8.05 | 4.22 | 4.74 | Cc1ccc(-c2nc3ccccc3n2Cc2ccc3c(c2)OCO3)cc1 [Example 42, 1-[(1,3-benzodioxol-5-yl)methyl]-2-(4-methylphenyl)-1H-benzimidazole] |  |  | 
8.52 | < 4.00 | 5.14 | c1ccc(Cn2c(-c3ccc4c(c3)OCO4)nc3cccnc32)cc1 [Example 43, 2-(1,3-Benzodioxol-5-yl)-3-(phenylmethyl)-3H-imidazo[4,5-b]pyridine] |  |  | 
 |  |  | CCCOc1ccccc1-c1nc2[nH]nnc2c(=O)[nH]1 [M&B 22,948, 2-o-propoxyphenyl-8-azapurin-6-one] |  | dose-dependent reduction in the mean arterial pressure | increase in urinary cGMP (and not cAMP) levels
